Assay results reported in US20260315653A1, “ANTICOAGULANT COMPOSITIONS COMPRISING ANTI-PLATELET AND ANTI-INFLAMMATORY DRUGS AND METHODS AND DEVICES FOR THEIR USE” (Elixir Medical Corporation, priority 2023, published 2026).
Where two headings read alike, the source gives them in different places. Values belong to the molecule of their own block, whether it stands above or below them.

What was measured:
[1] = test system: porcine coronary artery; assay: In vivo porcine coronary stent implantation: fibrin score and late lumen loss (Examples 25-26); settings: Table 9, day 7
Description: The drug eluting stent systems containing different anticoagulants prepared as described in Example 11 were evaluated at 3 hours, 6 hours, 1 day, 3 days, 6 days, 7 days, or 28 days following implantation in a porcine coronary artery model.
The porcine model was chosen as this model has been used extensively for stent and angioplasty studies resulting in a large volume of data on the vascular response properties and its correlation to human vascular response (Schwartz et al, Circulation. 2002; 106:1867 1873). The animals were housed and cared for in accordance with the Guide for the Care and Use of Laboratory Animals as established by the National Research Council.
After induction of anesthesia, the left or right femoral artery was accessed using standard techniques and an arterial sheath was introduced and advanced into the artery. Vessel angiography was performed under fluoroscopic guidance, a 7 Fr. guide catheter was inserted through the sheath and advanced to the appropriate location where intracoronary nitroglycerin was administered. An appropriate implantation segment of coronary artery was randomly selected and a 0.014″ guidewire inserted. Quantitative Coronary Angiography (QCA) was performed to document the results. The appropriately size stent was advanced to the deployment site. The balloon was inflated at a steady rate to a pressure sufficient to achieve a balloon to artery ratio of approximately 1.1 to 1.0.
Follow up angiography was performed at the designated timepoint for each of the animals. Late lumen loss (LLL) can be expressed as: […]
The LLL is an indicator of the amount smooth muscle cell (SMC) proliferation or inhibition. It is used to measure efficacy between drugs for SMC proliferation inhibition. The smaller the LLL, the better the efficacy of the drug.
Stented portions of coronary arteries were embedded in methyl methacrylate (MMA), then divided into a target of at least three blocks of approximately similar lengths for histology evaluation. Quantitative histopathological evaluation of stented artery sections was then performed and scored as indicated. For Fibrin formation, scores ranged from 0 to 3, with a score of 0 indicating absent or rare minimal spotting around struts of the stent, a score of 1 indicating the presence of fibrin in small amounts localized only around the struts, a score of 2 indicating the moderately abundant or denser presence of fibrin around and extending beyond the struts, and a score of 3 indicating the presence of abundant and dense fibrin and/or bridging of the fibrin between the struts. The mean score was calculated and reported. The mean of each section was then averaged to provide a mean fibrin score per stent. The smaller the fibrin score, the better efficacy.

[2] = test system: blood clotting (fresh pig blood); assay: Activated clotting time (ACT) of EDTA or analogues in fresh pig blood (Example 12); settings: for Increase in clotting time compared to control: control 154 sec; for blood coagulation compared to the blood control: EDTA 200 ng/mg, sodium salts 300 ng/mg
Description: The activated clotting time (ACT) evaluation of EDTA or analogues was performed in fresh pig blood and recorded employing the Hemochron® Response device.
(§1) The ACT measurements were made in fresh pig blood. 1.0 ml of fresh pig blood was added to a test tube containing an activator (Hemochron@Celite@ ACT tubes, Lot F8FTE026 from Accriva Diagnostics, Inc.). A target amount of drug solution was then added into the test tube. The test tube was gently swirled so that the blood and drug was well-mixed. 0.1 ml of 0.3M calcium chloride was then added. The tube was gently shaken before being inserted into the Hemochron Response detector. The ACT read out was recorded and reported. The ACT of the control blood in the absence of any drug as first determined to establish a baseline. Then ACT was determined in the presence of different concentrations of EDTA or analogues as a single component.

[3] = pH of 1 mg/ml EDTA or analogue in water or phosphate buffer; assay type: physicochemical; settings: 1 mg/ml in 0.01 M pH 7.4 phosphate buffer, 21.8-22.3 ° C.
[4] = as above; assay type: physicochemical
Source text: Based on the pH of EDTA or analogues in water and in 0.1M phosphate buffered saline as show in Table 2, EDTA disodium salt or dipotassium salt has a pH close to neutral pH in human body (6.42-6.92), whereas EDTA tetrasodium or trisodium has a very basic pH (>8.0) in human body. EDTA disodium or dipotassium is preferred in the examples.

[5] = test system: blood clotting (citrated sheep blood); assay: Activated clotting time (ACT) of EDTA or other anti-coagulant compounds in citrated sheep blood (Example 13)
Description: The activated clotting time (ACT) evaluation of anticoagulants was performed in Calcium-reconstituted sheep blood and recorded employing the Hemochron® Response device.
as §1, with “citrated sheep” for “fresh pig”, “1.9” for “1.0”, “EDTA or other anti-coagulant compounds” for “drug”

[6] = test system: blood clotting (heparinized sheep blood); assay: Net ACT initiated by platelet activation factor (PAF) and CaCl2 in heparinized sheep blood (Examples 6-11)
Description: In order to examine the potential synergistic effects between anti-inflammatory agents, direct factor Xa inhibitors, direct factor IIa inhibitors, antiplatelets (P2Y12 inhibitor and glycoprotein IIb/IIIa inhibitor, platelet activation factor and CaCl2 were utilized by measuring ACT. Heparinized sheep blood was used to preserve platelet function.
The activated clotting time (ACT) evaluation initiated by platelet activation factor (PAF) and calcium chloride (CaCl2) was performed in heparinized sheep blood and recorded employing the Hemochron® Response device. […] A target amount of drug solution was then added into the test tube. The test tube was gently swirled so that the blood and drug were well-mixed. […] The tube was gently shaken before being inserted into the Hemochron Response detector. The ACT read out was recorded and reported. The ACT of the control heparinized sheep blood in the absence of any drug as first measured to establish a baseline. […] Then ACT was measured in the presence of different concentrations of the drug measured. Selected drug combinations were then tested to evaluate for potential synergy in action between the drug combination. The net ACT (ACT minus blood control ACT) was utilized to visualize the synergistic effect. […] The figures are presented in ng/mg wherein the density of blood and tissue are approximately the same.

[7] = test system: blood clotting (citrated sheep blood); assay: Net activated clotting time (net ACT) in citrated sheep blood (Examples 3-5); set-up: key: seconds; measured ACT minus blood control ACT (165 s); settings: single drug, blood control 165 seconds
Description: The activated clotting time (ACT) evaluation of anticoagulants was performed in calcium citrate sheep blood and recorded employing the Hemochron® Response device. The ACT measurements were made in citrated sheep blood. 1.9 ml of citrated sheep blood was added to a test tube containing an activator (Hemochron@Celite@ ACT tubes, Lot F8FTE026 from Accriva Diagnostics, Inc.). A target amount of drug solution was then added into the test tube. The test tube was gently swirled so that the blood and drug were well-mixed. 0.1 ml of 0.3M calcium chloride was then added. The tube was gently shaken before being inserted into the Hemochron Response detector. The ACT read out was recorded and reported. The ACT of the control blood in the absence of any drug as first determined to establish a baseline. Here the blood control measured is 165 seconds. Then ACT was determined in the presence of different concentrations of the drug as a single component. In the following study, the net ACT (measured ACT minus blood control ACT) was utilized to visualize the synergistic effect of direct factor Xa inhibitor (Rivaroxaban) and direct factor IIa inhibitor (Argatroban) drug combinations. The figures are presented in ng/mg wherein the density of blood and tissue are approximately the same.
Example 4 is the continuation of example 3, which employed the same method as in example 3. The only difference is that the direct factor Xa inhibitor Edoxaban is used in place of direct factor Xa inhibitor Rivaroxaban.
Example 5 is the continuation of example 3, which employed the same method as in example 3. The only difference is that the direct factor Xa inhibitor Betrixaban is used in place of direct factor Xa inhibitor Rivaroxaban.

[8] = 1 mg/ml in d-water, 21.8-22.0 ° C.
[9] = 167 ng/mg, blood control 202 sec
[10] = single drug, 0.05 ng/mg, PAF & CaCl2, blood control 235 seconds

Molecule: Dalteparin
LLL / smooth muscle cell proliferation compared to bare metal control stents [1]: larger LLLs compared to control | inhibition of fibrin formation compared to bare metal control stents [1]: not effective at inhibiting fibrin formation

Molecule: CC(=O)OCOC(=O)CN(CCN(CC(=O)OCOC(C)=O)CC(=O)OCOC(C)=O)CC(=O)OCOC(C)=O [EDTA tetra acetoxymethyl ester]
Clotting time (ACT) ([2]; 500 ng/mg): 158 s | Increase in clotting time compared to control ([2]; 500 ng/mg): 4 s

pH [3]: 7.77 | pH [4, 8]: 9.21 | pH ([4]; in water and phosphate buffered saline): > 8.0
Molecule: O=C(O)CN(CCN(CC(=O)O)CC(=O)O)CC(=O)O [EDTA tri sodium]

pH ([3]; listed as EDTA disodium): 6.92 | pH ([4]; 1 mg/ml in d-water, 21.8-22.0 ° C., listed as EDTA disodium): 6.42 | pH ([4]; in water and phosphate buffered saline, listed as EDTA disodium salt): 6.42-6.92
Molecule: O=C(O)CN(CCN(CC(=O)O)CC(=O)O)CC(=O)O [EDTA•2Na•2H2O]
Clotting time (ACT) ([2]; 100 ng/mg): 191 s | Increase in clotting time compared to control ([2]; 100 ng/mg): 37 s | Clotting time (ACT) ([2]; 200 ng/mg): 264 s | Increase in clotting time compared to control ([2]; 200 ng/mg): 110 s | Clotting time (ACT) ([2]; 300 ng/mg): 374 s | Increase in clotting time compared to control ([2]; 300 ng/mg): 220 s | blood coagulation compared to the blood control ([2]; listed as EDTA disodium salt): The same trend

Molecule: CCCCCCCCCCCCCC[N+](C)(C)Cc1ccccc1.[Cl-] [Benzyldimethyltetradecyl-ammonium chloride]
Clotting time (ACT) ([5]; 67 ng/mg): 316 s | Increase in clotting time compared to control ([5]; 67 ng/mg): 114 s | Clotting time (ACT) ([5]; 100 ng/mg): 421 s | Increase in clotting time compared to control ([5]; 100 ng/mg): 219 s | Clotting time (ACT) ([5]; 133 ng/mg): 983 s | Increase in clotting time compared to control ([5]; 133 ng/mg): 781 s | Clotting time (ACT) [5, 9]: 1370 s | Increase in clotting time compared to control [5, 9]: 1168 s

Molecule: O=C(O)C(S)C(S)C(=O)O (stereo not drawn) [Dimercaptosuccinic acid (DMSA), Dimercaptosuccinic acid]
Clotting time (ACT) ([2]; 200 ng/mg): 151 s | Increase in clotting time compared to control ([2]; 200 ng/mg): -3 s

Molecule: COc1cc2c(c(OC)c1OC)-c1ccc(OC)c(=O)cc1[C@@H](NC(C)=O)CC2 [Colchicine]
net ACT [6]: 41 s

Molecule: CCCSc1nc(N[C@@H]2C[C@H]2c2ccc(F)c(F)c2)c2nnn([C@@H]3C[C@H](OCCO)[C@@H](O)[C@H]3O)c2n1 [Ticagrelor]
net ACT [6, 10]: 18 s

Molecule: CCCCS(=O)(=O)N[C@@H](Cc1ccc(OCCCCC2CCNCC2)cc1)C(=O)O [Tirofiban]
net ACT [6, 10]: 9 s

pH [3]: 6.93 | pH [4, 8]: 6.25 | pH ([4]; in water and phosphate buffered saline, listed as dipotassium salt): 6.42-6.92
Molecule: O=C(O)CN(CCN(CC(=O)O)CC(=O)O)CC(=O)O [EDTA dipotassium]

Molecule: O=C(O)CN(CCN(CC(=O)O)CC(=O)O)CC(=O)O [EDTA, ethylenediaminetetraacetic acid]
Clotting time (ACT) ([2]; 75 ng/mg): 179 s | Increase in clotting time compared to control ([2]; 75 ng/mg): 25 s | Clotting time (ACT) ([2]; 100 ng/mg): 247 s | Increase in clotting time compared to control ([2]; 100 ng/mg): 93 s | Clotting time (ACT) ([2]; 150 ng/mg): 275 s | Increase in clotting time compared to control ([2]; 150 ng/mg): 121 s | Clotting time (ACT) ([2]; 200 ng/mg): >500 s | Increase in clotting time compared to control ([2]; 200 ng/mg): >346 s | blood coagulation compared to the blood control [2]: significant delayed blood coagulation

Molecule: CN1CCc2nc(C(=O)N[C@@H]3C[C@@H](C(=O)N(C)C)CC[C@@H]3NC(=O)C(=O)Nc3ccc(Cl)cn3)sc2C1 [Edoxaban]
net ACT ([7]; 0.15 ng/mg): 42 | net ACT ([7]; 0.3 ng/mg): 87

Molecule: COc1ccc(NC(=O)c2ccc(C(=N)N(C)C)cc2)c(C(=O)Nc2ccc(Cl)cn2)c1 [Betrixaban]
net ACT ([7]; 0.3 ng/mg): 21
